The text below walks through data of ChEMBL document CHEMBL6092168, “Identification of novel indolinone derivatives as CTSC inhibitors to treat inflammatory bowel disease by modulating inflammatory factors” (Eur J Med Chem, 2024).

The source made the active and inactive calls. The rule behind the calls is not given here.

Usually inhibition stands for the percentage by which the read-out fell short of the control. By IC50 is commonly meant the point on the concentration scale where inhibition reaches its midpoint.

One data set concerns the target Dipeptidyl peptidase 1 (Homo sapiens, UniProt P53634). In words: Inhibition of Cathepsin C in human U-937 cells using H-Gly-Arg-AMC as substrate at 10 uM incubated for 5 days by fluorescence based microplate reader analysis relative to control. The format is cell-based. Conditions: time 5.0 day.
Data set [1] concerns Mus musculus. In words: Anti-inflammatory activity in DSS-induced ulcerative colitis male C57BL/6 mouse model assessed as reduction in Cathepsin G level in colon at 60 mg/kg administered via gavage for 10 days relative to control. Details: scale not given: the % may be the effect or the level left. The format is functional. The note with it: time 10 day.
The test system of data set [2] is Mus musculus. Description: Anti-inflammatory activity in DSS-induced ulcerative colitis male C57BL/6 mouse model assessed as decrease in body weight loss at 15 mg/kg administered via gavage for 10 days. It counts as functional, organism-based. Conditions: time 10.0 day.
In data set [3] the test system is Mus musculus. Description: Anti-inflammatory activity in DSS-induced ulcerative colitis male C57BL/6 mouse model assessed as reduction in Cathepsin G level in serum at 60 mg/kg administered via gavage for 10 days relative to control. More on the design: scale not given: the % may be the effect or the level left. It counts as functional. The note with it: time 10 day.

Data set [4] is described as follows: Acute toxicity in ICR mouse assessed as body weight loss at 500 mg/kg, po administered twice daily for 7 days. It counts as organism-based. Conditions: in vivo, 168 h, time 7 day.
The nature of data set [5]: Acute toxicity in ICR mouse assessed as liver pathological change at 1500 mg/kg, po administered daily for 7 days by H and E staining based analysis. It counts as organism-based. Conditions: in vivo, 168 h, time 7 day.
The target of data set [6] is T1, Cathepsin G (Mus musculus) (UniProt P28293).
T1 sequence (whole entry): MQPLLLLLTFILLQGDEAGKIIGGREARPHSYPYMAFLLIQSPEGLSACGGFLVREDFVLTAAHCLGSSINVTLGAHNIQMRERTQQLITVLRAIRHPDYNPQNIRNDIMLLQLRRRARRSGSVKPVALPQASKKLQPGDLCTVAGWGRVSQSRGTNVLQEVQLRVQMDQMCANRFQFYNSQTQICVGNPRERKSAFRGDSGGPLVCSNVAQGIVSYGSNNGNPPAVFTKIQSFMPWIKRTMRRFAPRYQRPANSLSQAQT
In words: Induction of Cathepsin G degradation in C57BL/6 mouse bone marrow cells assessed as residual activity at 10 uM incubated for 48 hrs by Western blot analysis relative to control. It counts as cell-based. The note with it: Bone marrow cell. In general terms: Immunoblotting shows a protein as a band on a membrane.

For data set [7], the system named is Mus musculus. In words: Anti-inflammatory activity in DSS-induced ulcerative colitis male C57BL/6 mouse model assessed as reduction in GM-CSF expression in colon administered via gavage for 10 days by ELISA. The format is functional, organism-based. Conditions: dose 15-60 mg/kg, time 10.0 day. (In an ELISA, binding on a coated surface is turned into a signal by an enzyme label.)

Data set [8] relates to RAW264.7. Description: Anti-inflammatory activity in mouse RAW264.7 cells assessed as inhibition of LPS-induced NO production preincubated for 1 hr followed by LPS addition and measured after 24 hrs by Griess reagent based assay. The format is functional, cell-based. (Nitrite, measured by Griess reagent, commonly stands in for NO production.)
For data set [9], the system named is Mus musculus. Description: Anti-inflammatory activity in DSS-induced ulcerative colitis male C57BL/6 mouse model assessed as reduction in IL-1 beta expression in colon administered via gavage for 10 days by ELISA. The format is functional, organism-based. The note with it: dose 15-60 mg/kg, time 10.0 day.
The subject of data set [10] is RAW264.7. In words: Anti-inflammatory activity in mouse RAW264.7 cells assessed as inhibition of LPS-induced IL-1beta production at 5 uM preincubated for 1 hr followed by LPS addition and measured after 24 hrs by ELISA relative to control. It counts as functional. Details: scale not given: the % may be the effect or the level left. Conditions: time 25 hrs.
Data set [11] deals with Mus musculus. Description: Anti-inflammatory activity in DSS-induced ulcerative colitis male C57BL/6 mouse model assessed as reduction in Cathepsin C level in serum at 60 mg/kg administered via gavage for 10 days relative to control. The note with it: time 10 day. More on the design: scale not given: the % may be the effect or the level left. The format is functional.
Data set [12] addresses T1, Cathepsin G (Mus musculus). Description: Induction of Cathepsin G degradation in C57BL/6 mouse bone marrow cells at 10 uM incubated for 24 hrs by Western blot analysis. It counts as cell-based. Conditions: Bone marrow cell.
Data set [13] is described as follows: Acute toxicity in ICR mouse assessed as lung pathological change at 1500 mg/kg, po administered daily for 7 days by H and E staining based analysis. The format is organism-based. Conditions: in vivo, 168 h, time 7 day.
Data set [14] has as its target T1, Cathepsin G (Mus musculus). In words: In vivo inhibition of Cathepsin G in C57BL/6 mouse assessed as reduction in cathepsin G activity in bone marrow at 30 mg/kg, po administered once daily for 6 days by fluorescence based microplate reader relative to control. The format is functional, organism-based. Conditions: time 6.0 day.
Data set [15] has as its target T2, Neutrophil elastase (Mus musculus) (UniProt Q3UP87).
T2 sequence (whole entry): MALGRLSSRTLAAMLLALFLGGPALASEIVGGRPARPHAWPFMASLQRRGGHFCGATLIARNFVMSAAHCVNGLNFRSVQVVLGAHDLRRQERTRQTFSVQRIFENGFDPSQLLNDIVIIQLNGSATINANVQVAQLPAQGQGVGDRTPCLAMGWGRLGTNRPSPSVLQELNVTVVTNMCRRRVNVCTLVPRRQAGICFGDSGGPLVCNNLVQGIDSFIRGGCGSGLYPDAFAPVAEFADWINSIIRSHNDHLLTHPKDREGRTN
Description: In vivo inhibition of neutrophil elastase in C57BL/6 mouse assessed as reduction in neutrophil elastase activity in blood administered orally once daily for 6 days by fluorescence based microplate reader. It counts as functional, organism-based. The note with it: dose 5-30 mg/kg, route po, time 6.0 day.

The target of data set [16] is T3, Myeloblastin (Mus musculus) (UniProt Q61096).
T3 sequence (whole entry): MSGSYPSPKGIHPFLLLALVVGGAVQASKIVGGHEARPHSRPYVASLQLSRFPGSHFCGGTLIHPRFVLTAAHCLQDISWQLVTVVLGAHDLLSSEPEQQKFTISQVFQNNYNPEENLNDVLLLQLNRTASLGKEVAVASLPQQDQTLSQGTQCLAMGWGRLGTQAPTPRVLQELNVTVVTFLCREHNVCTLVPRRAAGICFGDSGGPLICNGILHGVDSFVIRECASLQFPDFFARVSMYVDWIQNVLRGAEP
Description: In vivo inhibition of proteinase 3 in C57BL/6 mouse assessed as reduction in proteinase 3 activity in bone marrow at 30 mg/kg, po administered once daily for 6 days by fluorescence based microplate reader relative to control. It counts as functional, organism-based. The note with it: time 6.0 day.

In data set [17] the test system is Mus musculus. Description: Anti-inflammatory activity in DSS-induced ulcerative colitis male C57BL/6 mouse model assessed as reduction in crypt loss in colon at 60 mg/kg administered via gavage for 10 days by H and E staining based analysis. It counts as functional, organism-based. Conditions: time 10.0 day.
Data set [18] addresses T4, Dipeptidyl peptidase 1 (Mus musculus) (UniProt P97821).
T4 sequence (whole entry): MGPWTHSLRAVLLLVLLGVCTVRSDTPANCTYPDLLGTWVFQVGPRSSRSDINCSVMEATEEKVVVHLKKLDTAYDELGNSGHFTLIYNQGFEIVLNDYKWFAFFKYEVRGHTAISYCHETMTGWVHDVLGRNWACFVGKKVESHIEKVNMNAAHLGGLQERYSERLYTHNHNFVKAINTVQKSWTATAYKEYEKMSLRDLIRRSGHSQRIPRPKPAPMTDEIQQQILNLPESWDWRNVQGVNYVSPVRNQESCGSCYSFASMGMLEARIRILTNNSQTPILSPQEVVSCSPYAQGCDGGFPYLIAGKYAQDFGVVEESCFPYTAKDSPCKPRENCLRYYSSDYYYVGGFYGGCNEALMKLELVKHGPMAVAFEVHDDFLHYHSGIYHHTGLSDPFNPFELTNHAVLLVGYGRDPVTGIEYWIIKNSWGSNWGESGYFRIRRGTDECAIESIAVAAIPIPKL
In words: In vivo inhibition of Cathepsin C in C57BL/6 mouse assessed as reduction in cathepsin C activity in blood at 30 mg/kg, po administered once daily for 6 days by fluorescence based microplate reader relative to control. It counts as functional, organism-based. Conditions: time 6.0 day.

Sequence of Dipeptidyl peptidase 1 (P53634 25-134 limits assumed): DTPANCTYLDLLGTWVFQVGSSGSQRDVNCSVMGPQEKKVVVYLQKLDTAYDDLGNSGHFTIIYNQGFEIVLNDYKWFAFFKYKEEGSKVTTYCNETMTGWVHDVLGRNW
Sequence of Dipeptidyl peptidase 1 (P53634 231-394 limits assumed): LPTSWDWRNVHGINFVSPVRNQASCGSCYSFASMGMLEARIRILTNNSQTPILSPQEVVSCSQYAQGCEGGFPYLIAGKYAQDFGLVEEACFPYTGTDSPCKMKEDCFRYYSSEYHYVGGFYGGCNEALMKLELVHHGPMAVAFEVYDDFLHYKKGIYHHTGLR
Sequence of Dipeptidyl peptidase 1 (P53634 395-463 limits assumed): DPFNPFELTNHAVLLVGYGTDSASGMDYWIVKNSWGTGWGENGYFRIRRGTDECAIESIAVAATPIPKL

As for `O=C1Nc2c(cccc2-c2ccc(NC3CCOCC3)cc2)/C1=C/c1ccnc2ccccc12`, the inhibition is 14.9% against Dipeptidyl peptidase 1; 55.2% in data set [14]; “Dose-dependent-effect” in data set [15]; 58.6% in data set [16]; 27.2% in data set [18]. Also, the Activity in the data set on Mus musculus [1] is 51%; in the data set on Mus musculus [2] it was “Active; Weight Loss Was Lower Than In Mesalazine Group”; in the data set with Mus musculus [3], 40%; in data set [4] it was “Non-toxic”; in data set [5], “Non-toxic”; in data set [6] it was 17.3%. The Activity result in the data set on Mus musculus [7] is listed as “Dose-dependent-effect; Significant Reduction Observed In High Dose Group”; in the data set with Mus musculus [9], “Dose-dependent-effect; Significant Reduction Observed In High Dose Group”; in the data set on RAW264.7 [10], 90.5%; with Mus musculus [11], 37%; in data set [13], “Non-toxic”. Moreover, the IC50 with RAW264.7 [8] was found to be 5.5 µM. Moreover, the outcome (in data set [12]; in the data set with Mus musculus [17]) was Active.
